Literature values as cited in paper PMC5752104 (Bioorganic & medicinal chemistry, 2017).

What was measured:
GPR55 = GPR55 (Homo sapiens, UniProt Q9Y2T6)
Chain of GPR55 (Q9Y2T6 whole entry): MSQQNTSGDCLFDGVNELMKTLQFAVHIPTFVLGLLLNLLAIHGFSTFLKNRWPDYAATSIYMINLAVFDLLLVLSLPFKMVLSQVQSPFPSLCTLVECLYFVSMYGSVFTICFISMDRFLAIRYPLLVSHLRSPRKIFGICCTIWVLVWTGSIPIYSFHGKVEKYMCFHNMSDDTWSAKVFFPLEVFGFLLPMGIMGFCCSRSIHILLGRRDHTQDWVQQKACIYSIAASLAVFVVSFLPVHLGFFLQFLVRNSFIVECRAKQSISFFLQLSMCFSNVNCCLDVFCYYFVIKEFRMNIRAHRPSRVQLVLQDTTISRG
Chain of GPR55 (P32121 whole entry partner): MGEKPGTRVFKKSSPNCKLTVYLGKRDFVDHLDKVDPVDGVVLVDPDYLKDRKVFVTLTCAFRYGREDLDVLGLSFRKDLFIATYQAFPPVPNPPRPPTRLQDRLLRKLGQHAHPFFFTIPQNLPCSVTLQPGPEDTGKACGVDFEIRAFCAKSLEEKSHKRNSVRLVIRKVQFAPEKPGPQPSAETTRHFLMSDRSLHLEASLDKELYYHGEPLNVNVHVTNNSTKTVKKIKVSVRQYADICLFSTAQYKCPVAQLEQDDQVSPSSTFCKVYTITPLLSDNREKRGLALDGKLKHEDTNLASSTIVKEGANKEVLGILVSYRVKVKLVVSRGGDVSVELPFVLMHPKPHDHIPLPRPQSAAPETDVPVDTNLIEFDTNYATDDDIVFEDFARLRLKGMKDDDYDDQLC

Compound	effect at GPR55 (GPR55)	activity at CB1 (CB1)	activity at GPR35 (GPR35)	activity at CB2 (CB2)
CCCCCCC(C)(C)c1ccc([C@@H]2C[C@H](O)CC[C@H]2CCCO)c(O)c1 [CP55940]	acts as an antagonist			
COc1ccccc1/C=C/C(=O)NC(=S)Nc1ccc(S(=O)(=O)N(C)c2ccccc2)cc1 [6fv, (E)-3-(2-Methoxyphenyl)-N-((4-(N-methyl-N-phenylsulfamoyl)phenyl)carbamothioyl)acrylamide]		no activity	no activity	no activity
Cc1c(C(=O)NN2CCCCC2)nn(-c2ccc(Cl)cc2Cl)c1-c1ccc(I)cc1 [AM251]	strongly activates GPR55			
